In US6551390B1, “Composition containing two different disazodyestuffs useful for ink jet recording” (Avecia Limited, priority 1998, dated 2003):

Experiment: Aqueous solubility of dyes and dye composition
Format: physicochemical
Details: aqueous solubility at 20° C. and pH 9.5
Procedure: The aqueous solubility of Composition (1), Dye (A) and Dye (B) at 20° C. and pH 9.5 is: […]

- Solubility (%): 10.7%
SMILES: COc1cc(N=Nc2cccc(S(=O)(=O)O)c2)ccc1NC(=O)Nc1ccc(N=Nc2cccc(S(=O)(=O)O)c2)cc1OC [Dye (A), CI Direct Yellow 132]
